From ChEMBL document CHEMBL1201862, “PubChem BioAssay data set” (2004)
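All cell lines were grown in 96-well plates and treated with compound for 48 hours. Abbreviation: GI50, concentration required for 50% inhibition of growth.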 The source made the active and inactive calls. No stated cut-off is given here; in the data, active = GI50 up to about 1.1 µM and inactive = higher.

Assays:
Experiment in all cases: inhibition of tumour cell growth, NCI panel, 48 h
CAKI-1 = tested on: CAKI-1
CCRF-CEM = tested on: CCRF-CEM
COLO 205 = tested on: COLO 205
DU-145 = tested on: DU-145
HCT-116 = tested on: HCT-116
HOP-62 = tested on: HOP-62
HOP-92 = tested on: HOP-92
HT-29 = tested on: HT-29
KM12 = tested on: KM12
MDA-MB-231 = tested on: MDA-MB-231
MDA-MB-435 = tested on: MDA-MB-435
MDA-N = tested on: MDA-N
Malme-3M = tested on: Malme-3M
NCI-H226 = tested on: NCI-H226
RPMI-8226 = tested on: RPMI-8226
RXF 393 = tested on: RXF 393
SF-295 = tested on: SF-295
SN12C = tested on: SN12C
T47D = tested on: T47D
SK-MEL-2 = tested on: SK-MEL-2

Measured: GI50

O=C1NNC2(C(=O)N1)c1ccccc1-c1ccccc12
inactive: CAKI-1 > 10 µM | CCRF-CEM > 10 µM | COLO 205 > 10 µM | DU-145 > 10 µM | HCT-116 > 10 µM | HOP-62 > 10 µM | HOP-92 > 10 µM | HT-29 > 10 µM | KM12 > 10 µM | MDA-MB-231 > 10 µM | MDA-MB-435 > 10 µM | MDA-N > 10 µM | Malme-3M > 10 µM | NCI-H226 > 10 µM | RPMI-8226 > 10 µM | RXF 393 > 10 µM | SF-295 > 10 µM | SN12C > 10 µM | T47D 2.55 µM

NC(=S)SC1=NC(=O)C2(NN1)c1ccccc1-c1ccccc12
inactive: CAKI-1 > 10 µM | CCRF-CEM > 10 µM | COLO 205 > 10 µM | DU-145 > 10 µM | HCT-116 > 10 µM | HOP-62 > 10 µM | HOP-92 > 10 µM | HT-29 > 10 µM | KM12 > 10 µM | MDA-MB-231 > 10 µM | MDA-MB-435 > 10 µM | MDA-N > 10 µM | Malme-3M > 10 µM | NCI-H226 > 10 µM | RPMI-8226 5.12 µM | RXF 393 > 10 µM | SF-295 > 10 µM | SN12C > 10 µM | T47D 1.67 µM

COC(=O)c1c2c(cc3c1CC1(Cc4ccc(C(C)=O)cc4C1)C3)CCC2 (configuration not stated)
inactive: CAKI-1 53.3 µM | CCRF-CEM 27.7 µM | COLO 205 31.9 µM | DU-145 79.3 µM | HCT-116 36.3 µM | HOP-62 91.2 µM | HOP-92 93.3 µM | HT-29 19.5 µM | KM12 17.6 µM | MDA-MB-231 20.4 µM | MDA-MB-435 6.92 µM | MDA-N 7.64 µM | Malme-3M 15.7 µM | NCI-H226 67.1 µM | RPMI-8226 24.7 µM | RXF 393 20.2 µM | SF-295 40.5 µM | SN12C 19.7 µM | T47D 31.1 µM

Cc1c(C)c2ccc(O)cc2[nH]c1=O
inactive: CAKI-1 > 100 µM | CCRF-CEM > 100 µM | COLO 205 > 100 µM | DU-145 > 100 µM | HCT-116 > 100 µM | HOP-62 > 100 µM | HOP-92 > 100 µM | HT-29 > 100 µM | KM12 > 100 µM | MDA-MB-231 > 100 µM | MDA-MB-435 > 100 µM | MDA-N > 100 µM | NCI-H226 > 100 µM | RPMI-8226 > 100 µM | RXF 393 > 100 µM | SF-295 > 100 µM | SK-MEL-2 > 100 µM | SN12C > 100 µM | T47D > 100 µM

C1=CC(=[N+]2N=C(c3ccccc3)CC2c2ccccc2)C=CC1=C1SC(c2ccccc2)(c2ccccc2)c2ccccc21.[O-][Cl+3]([O-])([O-])[O-] (configuration not stated)
inactive: CCRF-CEM > 100 µM | DU-145 > 100 µM | HCT-116 93.5 µM | HOP-62 > 100 µM | HOP-92 82 µM | HT-29 > 100 µM | KM12 > 100 µM | MDA-MB-231 > 100 µM | MDA-MB-435 > 100 µM | MDA-N > 100 µM | Malme-3M > 100 µM | NCI-H226 > 100 µM | RXF 393 > 100 µM | SF-295 61.8 µM | SK-MEL-2 > 100 µM | SN12C > 100 µM | T47D > 100 µM

COc1cccc(C(C#N)NNC(=O)c2c(Cl)c(Cl)c(Cl)c(Cl)c2-c2nc3cc(C(=O)c4ccccc4)ccc3[nH]2)c1O (configuration not stated)
inactive: CAKI-1 6.25 µM | CCRF-CEM 3.2 µM | COLO 205 3.24 µM | DU-145 6.4 µM | HCT-116 4 µM | HOP-62 2.03 µM | HOP-92 9.2 µM | HT-29 4.91 µM | KM12 3.64 µM | MDA-MB-231 4.15 µM | MDA-MB-435 1.81 µM | MDA-N 1.68 µM | NCI-H226 3 µM | RPMI-8226 3.55 µM | RXF 393 2.17 µM | SF-295 1.74 µM | SK-MEL-2 4.05 µM | SN12C 2.7 µM | T47D 2.79 µM

C=C1C(=O)O[C@H]2C[C@@H]1[C@@H](O)[C@H](O)[C@@H](C)CCCC(C)=CCC[C@@]2(C)O
inactive: CAKI-1 5.06 µM | CCRF-CEM > 100 µM | COLO 205 7.03 µM | DU-145 42.7 µM | HCT-116 16.1 µM | HOP-62 24.3 µM | HOP-92 12.4 µM | KM12 30.9 µM | MDA-MB-231 28 µM | MDA-MB-435 17.7 µM | MDA-N 9.86 µM | Malme-3M 13 µM | RPMI-8226 5.05 µM | RXF 393 22.7 µM | SF-295 54.7 µM | SK-MEL-2 21.6 µM | SN12C 17 µM | T47D 20.2 µM

Cc1ccc(/C=c2\c(=O)[nH]c3nc4ccccc4c(=O)n23)cc1
inactive: CAKI-1 > 100 µM | CCRF-CEM 30.7 µM | COLO 205 18.3 µM | DU-145 53 µM | HCT-116 28.5 µM | HOP-62 > 100 µM | HOP-92 55.2 µM | KM12 45.7 µM | MDA-MB-231 43.9 µM | MDA-MB-435 24.9 µM | MDA-N 23.8 µM | Malme-3M 45.5 µM | RPMI-8226 22.9 µM | RXF 393 29.6 µM | SF-295 73.1 µM | SK-MEL-2 62.2 µM | SN12C 28.8 µM | T47D 41.9 µM

Cc1coc2c1[C@@H](O)[C@@]1(C)[C@H](CCC[C@@H]1C)C2
inactive: CAKI-1 72.6 µM | CCRF-CEM 37.6 µM | COLO 205 22.6 µM | DU-145 37 µM | HCT-116 33.5 µM | HOP-62 40.5 µM | HOP-92 51.2 µM | HT-29 42.8 µM | KM12 85.3 µM | MDA-MB-231 27.2 µM | MDA-MB-435 15.1 µM | MDA-N 20.7 µM | Malme-3M 30 µM | NCI-H226 25.5 µM | RPMI-8226 31.8 µM | RXF 393 18.2 µM | SF-295 45 µM | SN12C 24.7 µM | T47D 31.4 µM

CCN1C=C/C(=C\C=C\c2cc[n+](CC)c3ccccc23)c2ccccc21
inactive: CCRF-CEM 4.52 µM | COLO 205 3.72 µM | DU-145 4.92 µM | HCT-116 2.75 µM | HOP-62 3.24 µM | HOP-92 12.4 µM | HT-29 3.51 µM | KM12 3.42 µM | MDA-MB-231 3.31 µM | MDA-MB-435 4.21 µM | MDA-N 7.01 µM | Malme-3M 13.4 µM | NCI-H226 3.36 µM | RPMI-8226 3.07 µM | RXF 393 17.3 µM | SF-295 3.58 µM | SK-MEL-2 7.62 µM | SN12C 3.63 µM | T47D 5.93 µM

CC(C)Oc1cc(O)c2c(c1)OCC=C2CCC(=O)O
inactive: CAKI-1 37.2 µM | CCRF-CEM 22.8 µM | COLO 205 16.2 µM | DU-145 52.5 µM | HCT-116 20.4 µM | HOP-62 30.5 µM | HOP-92 20 µM | HT-29 19.9 µM | KM12 31.5 µM | MDA-MB-231 36.8 µM | MDA-MB-435 23.8 µM | MDA-N 21.7 µM | NCI-H226 15.5 µM | RPMI-8226 24.4 µM | RXF 393 69.5 µM | SF-295 43.5 µM | SK-MEL-2 26.8 µM | SN12C 21.3 µM | T47D 39.3 µM

CC(C)C1=CC(=O)C(C)(C2C(O)CC3(C)C4CC=C5C(CCC(OC6OC(CO)C(O)C(O)C6OC6OC(C)C(O)C(O)C6O)C5(C)C)C4(C)C(=O)CC23C)O1 (configuration not stated)
inactive: CAKI-1 > 100 µM | CCRF-CEM > 100 µM | COLO 205 > 100 µM | DU-145 > 100 µM | HCT-116 > 100 µM | HOP-62 > 100 µM | HOP-92 > 100 µM | HT-29 > 100 µM | KM12 > 100 µM | MDA-MB-231 > 100 µM | MDA-MB-435 > 100 µM | MDA-N > 100 µM | Malme-3M > 100 µM | NCI-H226 > 100 µM | RPMI-8226 > 100 µM | RXF 393 > 100 µM | SF-295 > 100 µM | SN12C > 100 µM | T47D > 100 µM

O=C(O)CCC(N/N=N/c1ccc(-c2nc3ccccc3[nH]2)cc1)C(=O)O (configuration not stated)
inactive: CAKI-1 61.4 µM | CCRF-CEM 15 µM | COLO 205 > 100 µM | DU-145 > 100 µM | HCT-116 70.8 µM | HOP-62 48.8 µM | HOP-92 36.1 µM | HT-29 58.1 µM | KM12 37.4 µM | MDA-MB-231 > 100 µM | MDA-MB-435 52.8 µM | MDA-N 56 µM | NCI-H226 > 100 µM | RPMI-8226 17.9 µM | RXF 393 40.9 µM | SF-295 21.6 µM | SK-MEL-2 56.6 µM | SN12C 60.4 µM | T47D 30.7 µM

C=C(C)CCC(=O)[C@](C)(O)[C@H]1[C@H](O)C[C@@]2(C)[C@@H]3CCc4c(cc(OC5OC(CO)C(O)C(O)C5O)c(O)c4C)C3(C)C(=O)C[C@]12C (some centres not stated)
inactive: CAKI-1 > 100 µM | CCRF-CEM > 100 µM | COLO 205 > 100 µM | DU-145 > 100 µM | HCT-116 > 100 µM | HOP-62 > 100 µM | HOP-92 > 100 µM | HT-29 > 100 µM | KM12 > 100 µM | MDA-MB-231 > 100 µM | MDA-MB-435 > 100 µM | MDA-N > 100 µM | Malme-3M > 100 µM | NCI-H226 > 100 µM | RXF 393 > 100 µM | SF-295 > 100 µM | SK-MEL-2 > 100 µM | SN12C > 100 µM | T47D > 100 µM
